Patent US7226923B2, “Phthalazinone derivatives” (Hoffman-La Roche Inc., priority 2004, dated 2007)

Legend:
Aurora A = molecular target: T1, Aurora A (Homo sapiens, UniProt O14965); assay: IC50 determination for inhibitors of Aurora A (96 MTP-ELISA); assay type: biochemical; details: His4-tagged full-length Aurora A 250 ng/ml, PKB-GSK2 200 nM, ATP 4 μM, 90 min at room temperature, read-out: IC50 Aurora A kinase inhibition
T1 construct: C-terminally Histidine4 (His4)-tagged Aurora A full-length protein
T1 sequence (O14965 1-403): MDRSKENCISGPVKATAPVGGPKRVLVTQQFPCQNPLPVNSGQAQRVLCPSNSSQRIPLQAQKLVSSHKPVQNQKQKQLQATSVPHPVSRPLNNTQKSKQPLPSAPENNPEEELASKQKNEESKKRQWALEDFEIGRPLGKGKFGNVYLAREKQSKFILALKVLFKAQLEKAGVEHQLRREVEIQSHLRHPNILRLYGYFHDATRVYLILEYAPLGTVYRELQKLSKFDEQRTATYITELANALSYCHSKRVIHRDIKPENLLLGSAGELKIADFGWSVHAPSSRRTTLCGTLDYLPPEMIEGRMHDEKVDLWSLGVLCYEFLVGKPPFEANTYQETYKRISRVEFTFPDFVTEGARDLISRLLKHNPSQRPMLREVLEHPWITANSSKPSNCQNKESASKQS
Procedure: IC50 Determination for Inhibitors of Aurora A
• Aurora A is a serine threonine kinase involved in spindle assembly and chromosome segregation.
The assay is a typically ELISA-type assay where biotinylated substrate (PKB-GSK2) is phosphorylated. Phosphorylation is detected by peroxidase (POD) labelled polyclonal antibody (PAK<M-Ig>S-IgG-POD) and phosphopeptide monoclonal antibody (Mab) (MAK<P-GSK>M-27E5-IgG). The assay is validated for IC50-determination.
Method • This assay is performed in 96-well format for IC50 determination with 5 samples (each with 8 concentrations by twofold testing), 100 μl incubation volume and the following plate layout: […]

HCT 116 cells = assay: CellTiter-Glo assay in HCT 116 cells; assay type: cell-based, human; details: 5 days incubation, 30 μM to 0.0015 μM
Source text: CellTiter-Glo™ Assay in HCT 116 Cells
The CellTiter-Glo™ Luminescent Cell Viability Assay (Promega) is a homogeneous method of determining the number of viable cells in culture based on quantitation of the ATP present, which signals the presence of metabolically active cells.
HCT 116 cells (human colon carcinoma, ATCC-No. CCl-247) were cultivated in RPMI 1640 medium with GlutaMAX™ I (Invitrogen, Cat-No. 61870-010), 2.5% Fetal Calf Serum (FCS, Sigma Cat-No. F4135 (FBS)); 100 Units/ml penicillin/100 μg/ml streptomycin (=Pen/Strep from Invitrogen Cat. No. 15140). For the assay the cells were seeded in 384 well plates, 1000 cells per well, in the same medium. The next day the test compounds were added in various concentrations ranging from 30 μM to 0.0015 μM (10 concentrations, 1:3 diluted). After 5 days the CellTiter-Glo™ assay was done according to the instructions of the manufacturer (CellTiter-Glo™ Luminescent Cell Viability Assay, from Promega). In brief: the cell-plate was equilibrated to room temperature for approximately 30 minutes and than the CellTiter-Glo™ reagent was added. The contents were carefully mixed for 15 minutes to induce cell lysis. After 45 minutes the luminescent signal was measured in Victor 2, (scanning multiwell spectrophotometer, Wallac).
1st. Day: • Medium: RPMI 1640 with GlutaMAX™ I (Invitrogen, Cat-Nr. 61870), 5% FCS (Sigma Cat.-No. F4135), Pen/Strep (Invitrogen, Cat No. 15140). • HCT116 (ATCC-No. CCl-247): 1000 cells in 60 μl per well of 384 well plate (Greiner 781098, μClear-plate white) • After seeding incubate plates 24 h at 37° C., 5% CO2
2nd. Day: Induction (Treatment with Compounds, 10 Concentrations):
In order to achieve a final concentration of 30 μM as highest concentration 3.5 μl of 10 mM compound stock solution were added directly to 163 μl media. Then step e) of the dilution procedure described below, was followed.

IC50 (Aurora A) [nM]	IC50 (HCT 116 cells; Homo sapiens, HCT-116, 120 h) [nM]	IC50 (HCT 116 cells) [nM]	SMILES
100 to 1000	100 to 10000		Cc1cc(Nc2nn(C(C)C)c(=O)c3ccc(CO)cc23)n[nH]1 [Example M-10, 6-Hydroxymethyl-2-isopropyl-4-(5-methyl-1H-pyrazol-3-ylamino)-2H-phthalazin-1-one]
1 to 100	420		Cc1cc(Nc2nn(C(C)C)c(=O)c3c(N(C)C)cccc23)n[nH]1 [Example F-8, 2-Isopropyl-4-(5-methyl-1H-pyrazol-3-ylamino)-8-dimethylamino-2H-phthalazin-1-one]
1 to 100	100 to 10000		CCN(CC)C(=O)c1ccc2c(Nc3cc(C)[nH]n3)nn(C(C)C)c(=O)c2c1 [Example M-3, 3-Isopropyl-1-(5-methyl-1H-pyrazol-3-ylamino)-4-oxo-3,4-dihydro-phthalazine-6-carboxylic acid diethylamide]
1 to 100	100 to 10000		Cc1cc(Nc2nn(CC(=O)c3ccccc3)c(=O)c3ccccc23)n[nH]1 [Example E-9, 4-(5-Methyl-1H-pyrazol-3-ylamino)-2-(2-oxo-2-phenyl-ethyl)-2H-phthalazin-1-one]
100 to 1000	100 to 10000		Cc1cc(Nc2nn(-c3ccncc3)c(=O)c3ccccc23)n[nH]1 [Example X-1, 4-(5-Methyl-1H-pyrazol-3-ylamino)-2-pyridin-4-yl-2H-phthalazin-1-one]
	100 to 10000		Cc1cc(Nc2nn(-c3ccc(Cl)cc3)c(=O)c3ccccc23)n[nH]1 [Example B-1, 2-(4-Chloro-phenyl)-4-(5-methyl-1H-pyrazol-3-ylamino)-2H-phthalazin-1-one]
	100 to 10000		Cc1cc(Nc2nn(C(C)C)c(=O)c3cc(SCCN4CCOCC4)ccc23)n[nH]1 [Example H-3, 2-Isopropyl-4-(5-methyl-1H-pyrazol-3-ylamino)-7-(2-morpholin-4-yl-ethylsulfanyl)-2H-phthalazin-1-one]
100 to 1000	100 to 10000		Cc1cc(Nc2nn(CC(=O)c3ccc4c(c3)OCO4)c(=O)c3ccccc23)n[nH]1 [Example E-7, 2-(2-Benzo[1,3]dioxol-5-yl-2-oxo-ethyl)-4-(5-methyl-1H-pyrazol-3-ylamino)-2H-phthalazin-1-one]
	100 to 10000		COCC(=O)Nc1ccc(-n2nc(Nc3cc(C)[nH]n3)c3ccccc3c2=O)cc1 [Example T-2, 2-Methoxy-N-{4-[4-(5-methyl-1H-pyrazol-3-ylamino)-1-oxo-1H-phthalazin-2-yl]-phenyl}-acetamide]
	100 to 10000		Cc1cc(Nc2nn(-c3ccc(C(C)(C)C)cc3)c(=O)c3cc(N)ccc23)[nH]n1 [Example ZB-2, 7-Amino-2-(4-tert-butyl-phenyl)-4-(5-methyl-2H-pyrazol-3-ylamino)-2H-phthalazin-1-one]
	10000 to 100000		Cc1cc(Nc2nn(-c3ccc(-c4ccccc4)cc3)c(=O)c3ccccc23)n[nH]1 [Example Q-1, 2-Biphenyl-4-yl-4-(5-methyl-1H-pyrazol-3-ylamino)-2H-phthalazin-1-one]
	100 to 10000		CCOC(=O)N(C)c1ccc2c(Nc3cc(C)[nH]n3)nn(C(C)C)c(=O)c2c1 [Example I-7, [3-Isopropyl-1-(5-methyl-1H-pyrazol-3-ylamino)-4-oxo-3,4-dihydro-phthalazin-6-yl]-methyl-carbamic acid ethyl ester]
	100 to 10000		Cc1cc(Nc2nn(Cc3ccc(F)c(F)c3)c(=O)c3ccccc23)n[nH]1 [Example A-15, 2-(3,4-Difluoro-benzyl)-4-(5-methyl-1H-pyrazol-3-ylamino)-2H-phthalazin-1-one]
		1660	Cc1cc(Nc2nn(-c3ccccc3)c(=O)c3ccccc23)[nH]n1 [Example A-1, 4-(5-Methyl-2H-pyrazole-3-ylamino)-phenyl-2H-phthalazin-1-one]
	100 to 10000		Cc1cc(Nc2nn(C(C)C)c(=O)c3cc(N(C)S(C)(=O)=O)ccc23)n[nH]1 [Example I-10, N-[3-Isopropyl-1-(5-methyl-1H-pyrazol-3-ylamino)-4-oxo-3,4-dihydro-phthalazin-6-yl]-N-methyl-methanesulfonamide]
	100 to 10000		CCOC(=O)N(C)c1ccc(-n2nc(Nc3cc(C)[nH]n3)c3ccccc3c2=O)cc1 [Example Y-3, Methyl-{4-[4-(5-methyl-1H-pyrazol-3-ylamino)-1-oxo-1H-phthalazin-2-yl]-phenyl}-carbamic acid ethyl ester]
	100 to 10000		Cc1cc(Nc2nn(CC(C)C)c(=O)c3ccccc23)n[nH]1 [Example A-4, 2-Isobutyl-4-(5-methyl-1H-pyrazol-3-ylamino)-2H-phthalazin-1-one]
	100 to 10000		C=CCn1nc(Nc2cc(C)[nH]n2)c2ccccc2c1=O [Example E-10, 2-Allyl-4-(5-methyl-1H-pyrazol-3-ylamino)-2H-phthalazin-1-one]
	100 to 10000		CCN(C(C)=O)c1ccc(-n2nc(Nc3cc(C)[nH]n3)c3ccccc3c2=O)cc1 [Example Y-1, N-Ethyl-N-{4-[4-(5-methyl-1H-pyrazol-3-ylamino)-1-oxo-1H-phthalazin-2-yl]-phenyl}-acetamide]
	100 to 10000		Cc1cc(Nc2nn(-c3ccc(C(C)(C)C)cc3)c(=O)c3ccc(Br)cc23)[nH]n1 [Example ZB-6, 6-Bromo-2-(4-tert-butyl-phenyl)-4-(5-methyl-2H-pyrazol-3-ylamino)-2H-phthalazin-1-one]
	100 to 10000		Cc1cc(Nc2nn(Cc3cc(F)ccc3F)c(=O)c3ccccc23)n[nH]1 [Example A-13, 2-(2,5-Difluoro-benzyl)-4-(5-methyl-1H-pyrazol-3-ylamino)-2H-phthalazin-1-one]
	100 to 10000		Cc1cc(Nc2nn(-c3ccc(N)cc3)c(=O)c3ccccc23)n[nH]1 [Example C-2, 2-(4-Amino-phenyl)-4-(5-methyl-1H-pyrazol-3-ylamino)-2H-phthalazin-1-one]
	100 to 10000		Cc1cc(Nc2nn(C(C)C)c(=O)c3ccc(F)cc23)n[nH]1 [Example E-3, 6-Fluoro-2-isopropyl-4-(5-methyl-1H-pyrazol-3-ylamino)-2H-phthalazin-1-one]
	100 to 10000		CSc1ccc(Cn2nc(Nc3cc(C)[nH]n3)c3ccccc3c2=O)cc1 [Example E-12, 4-(5-Methyl-1H-pyrazol-3-ylamino)-2-(4-methylsulfanyl-benzyl)-2H-phthalazin-1-one]
	100 to 10000		Cc1cc(Nc2nn(C(C)C)c(=O)c3cc(C(=O)NC(C)C)ccc23)n[nH]1 [Example M-5, 3-Isopropyl-1-(5-methyl-1H-pyrazol-3-ylamino)-4-oxo-3,4-dihydro-phthalazine-6-carboxylic acid isopropylamide]
	100 to 10000		Cc1cc(Nc2nn(-c3ccc([S+]([O-])c4ccccc4)cc3)c(=O)c3ccccc23)n[nH]1 (centres unmarked) [Example ZA-2, 2-(4-Benzenesulfinyl-phenyl)-4-(5-methyl-1H-pyrazol-3-ylamino)-2H-phthalazin-1-one]
	100 to 10000		Cc1cc(Nc2nn(C(C)C)c(=O)c3cc(NS(C)(=O)=O)ccc23)n[nH]1 [Example J-2, N-[3-Isopropyl-1-(5-methyl-1H-pyrazol-3-ylamino)-4-oxo-3,4-dihydro-phthalazin-6-yl]-methanesulfonamide]
	100 to 10000		Cc1cc(Nc2nn(-c3ccc(N4CCCC4)cc3)c(=O)c3ccccc23)n[nH]1 [Example U-3, 4-(5-Methyl-1H-pyrazol-3-ylamino)-2-(4-pyrrolidin-1-yl-phenyl)-2H-phthalazin-1-one]
	100 to 10000		Cc1cc(Nc2nn(CC3CC3)c(=O)c3ccccc23)n[nH]1 [Example E-11, 2-Cyclopropylmethyl-4-(5-methyl-1H-pyrazol-3-ylamino)-2H-phthalazin-1-one]
